Tests used:
Type in all cases: cell-based
M3 muscarinic receptor = molecular target: T1, M3 muscarinic receptor (Homo sapiens, UniProt P20309); assay: Functional mobilization of intracellular calcium (FLIPR), M3-CHO cells; conditions: for Emax: 100% efficacy = maximum response obtained with the Carbachol control; for M3 Activity: M3-CHO cells, calcium mobilization (FLIPR)
T1 construct: expressed in transfected cells; host or cells: CHO (M3-CHO)
Summary of the method: (§1)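 Calcium mobilisation read by FLIPR over 60 s (ex 488/em 540 nm) in recombinant muscarinic CHO lines loaded with calcium dye plus 1 mM probenecid. Compounds tested as agonists alone, or as inhibitors against EC80 carbachol after 15 min pre-incubation or co-addition; 0.5% DMSO; efficacy scaled to carbachol maximal response.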

M2 muscarinic receptor = molecular target: T2, M2 muscarinic receptor (Homo sapiens, UniProt P08172); assay: Functional mobilization of intracellular calcium (FLIPR), M2-CHO cells; conditions: for Emax: 100% efficacy = maximum response obtained with the Carbachol control; for M2 Activity: M2-CHO cells, calcium mobilization (FLIPR)
T2 construct: expressed in transfected cells; host or cells: CHO (M2-CHO)
T2 sequence (P08172 1-466): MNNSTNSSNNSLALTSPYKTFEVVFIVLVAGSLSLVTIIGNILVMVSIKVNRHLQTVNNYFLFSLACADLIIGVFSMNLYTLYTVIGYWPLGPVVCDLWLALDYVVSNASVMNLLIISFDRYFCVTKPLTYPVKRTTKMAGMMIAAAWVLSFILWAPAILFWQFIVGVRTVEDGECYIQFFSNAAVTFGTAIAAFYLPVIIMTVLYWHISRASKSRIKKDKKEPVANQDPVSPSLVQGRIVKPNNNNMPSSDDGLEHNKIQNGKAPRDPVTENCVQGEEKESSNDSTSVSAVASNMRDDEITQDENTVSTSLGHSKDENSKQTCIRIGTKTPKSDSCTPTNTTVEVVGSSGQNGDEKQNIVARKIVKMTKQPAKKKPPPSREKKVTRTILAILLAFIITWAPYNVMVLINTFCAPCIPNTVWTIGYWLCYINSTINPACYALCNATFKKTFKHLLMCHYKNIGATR
Summary of the method: as §1

M1 muscarinic receptor = molecular target: T3, M1 muscarinic receptor (Homo sapiens, UniProt P11229); assay: Functional mobilization of intracellular calcium (FLIPR), M1-CHO cells; conditions: for Emax: 100% efficacy = maximum response obtained with the Carbachol control; for M1 Activity: M1-CHO cells, calcium mobilization (FLIPR)
T3 construct: expressed in transfected cells; host or cells: CHO (M1-CHO)
T3 sequence (P11229 1-460): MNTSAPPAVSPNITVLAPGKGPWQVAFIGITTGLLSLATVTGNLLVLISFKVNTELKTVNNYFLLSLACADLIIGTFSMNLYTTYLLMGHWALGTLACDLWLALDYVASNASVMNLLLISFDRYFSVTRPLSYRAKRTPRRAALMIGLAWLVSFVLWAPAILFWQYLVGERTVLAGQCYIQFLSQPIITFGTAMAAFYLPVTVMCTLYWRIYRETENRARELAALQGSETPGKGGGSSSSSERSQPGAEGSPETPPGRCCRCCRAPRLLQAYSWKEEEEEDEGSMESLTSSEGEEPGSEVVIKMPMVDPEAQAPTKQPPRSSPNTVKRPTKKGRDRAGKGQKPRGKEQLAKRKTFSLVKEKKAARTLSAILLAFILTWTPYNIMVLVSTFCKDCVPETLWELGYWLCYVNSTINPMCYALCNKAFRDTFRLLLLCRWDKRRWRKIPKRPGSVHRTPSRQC
Summary of the method: as §1

M4 muscarinic receptor = molecular target: T4, M4 muscarinic receptor (Homo sapiens, UniProt P08173); assay: Functional mobilization of intracellular calcium (FLIPR), M4-CHO cells; conditions: for Emax: 100% efficacy = maximum response obtained with the Carbachol control; for M4 Activity: M4-CHO cells, calcium mobilization (FLIPR)
T4 construct: expressed in transfected cells; host or cells: CHO (M4-CHO)
T4 sequence (P08173 1-479): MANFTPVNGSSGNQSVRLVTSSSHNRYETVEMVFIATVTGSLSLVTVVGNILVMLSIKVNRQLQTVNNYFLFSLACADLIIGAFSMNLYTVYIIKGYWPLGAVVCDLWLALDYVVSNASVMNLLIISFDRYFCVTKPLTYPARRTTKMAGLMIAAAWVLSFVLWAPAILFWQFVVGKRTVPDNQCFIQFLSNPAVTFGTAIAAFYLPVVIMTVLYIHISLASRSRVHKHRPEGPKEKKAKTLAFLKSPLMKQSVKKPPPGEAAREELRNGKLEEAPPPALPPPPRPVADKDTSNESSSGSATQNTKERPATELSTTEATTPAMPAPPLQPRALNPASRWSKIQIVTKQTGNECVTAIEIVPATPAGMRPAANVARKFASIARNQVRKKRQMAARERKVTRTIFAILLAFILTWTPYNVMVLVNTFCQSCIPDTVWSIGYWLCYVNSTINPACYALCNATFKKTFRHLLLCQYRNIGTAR
Summary of the method: as §1

T1 sequence (P20309 whole entry): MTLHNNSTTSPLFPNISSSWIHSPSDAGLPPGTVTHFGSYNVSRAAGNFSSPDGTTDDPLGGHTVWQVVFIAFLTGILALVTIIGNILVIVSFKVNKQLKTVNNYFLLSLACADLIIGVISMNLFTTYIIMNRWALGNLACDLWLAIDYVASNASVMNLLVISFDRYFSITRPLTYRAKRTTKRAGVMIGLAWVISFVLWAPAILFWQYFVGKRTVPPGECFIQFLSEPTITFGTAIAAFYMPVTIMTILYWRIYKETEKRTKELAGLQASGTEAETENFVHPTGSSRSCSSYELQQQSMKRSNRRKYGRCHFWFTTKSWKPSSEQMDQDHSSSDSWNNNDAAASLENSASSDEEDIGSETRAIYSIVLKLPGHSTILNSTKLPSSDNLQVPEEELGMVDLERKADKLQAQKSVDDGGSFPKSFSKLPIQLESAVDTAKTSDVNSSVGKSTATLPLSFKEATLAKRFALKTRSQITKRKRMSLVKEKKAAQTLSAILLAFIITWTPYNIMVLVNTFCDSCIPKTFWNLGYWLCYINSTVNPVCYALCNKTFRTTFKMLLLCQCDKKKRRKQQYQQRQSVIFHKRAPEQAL

SMILES	Emax (M3 muscarinic receptor) [%]	M3 Activity (M3 muscarinic receptor)	Emax (M2 muscarinic receptor) [%]	M2 Activity (M2 muscarinic receptor)	Emax (M1 muscarinic receptor) [%]	M1 Activity (M1 muscarinic receptor)	Emax (M4 muscarinic receptor) [%]	M4 Activity (M4 muscarinic receptor)
COc1ccc(-c2ccccc2Cl)cc1C1CCN([C@H]2C[C@H]3CC[C@H]2C3)CC1 [Compound 178]	< 25	+ (activity was measured to be greater than 5.0 μM)	< 25	+ (activity was measured to be greater than 5.0 μM)	< 25	+ (activity was measured to be greater than 5.0 μM)	25 to 100	+ (activity was measured to be greater than 5.0 μM)
CCOC(=O)N1C2CCC1CC(N1CCC(c3ccc(F)cc3OC)CC1)C2 (stereo not drawn) [Compound 179]	< 25	+ (activity was measured to be greater than 5.0 μM)	< 25	+ (activity was measured to be greater than 5.0 μM)	25 to 100	+++ (activity was measured to be less than 1.0 μM)	25 to 100	+++ (activity was measured to be less than 1.0 μM)
Cc1ccccc1C1CCN(C2CC3CCC2C3)CC1 (stereo not drawn) [Compound 180]	< 25	+ (activity was measured to be greater than 5.0 μM)	< 25	+ (activity was measured to be greater than 5.0 μM)	25 to 100	++ (activity was measured to be from 1.0 μM to 5.0 μM)	25 to 100	+++ (activity was measured to be less than 1.0 μM)
COc1ccc(Cl)cc1C1CCN(C2CCCCCC2)CC1 [Compound 181]	< 25	+ (activity was measured to be greater than 5.0 μM)	25 to 100	++ (activity was measured to be from 1.0 μM to 5.0 μM)	25 to 100	++ (activity was measured to be from 1.0 μM to 5.0 μM)	25 to 100	+++ (activity was measured to be less than 1.0 μM)
FC(F)(F)Oc1ccccc1C1CCN([C@H]2C[C@H]3CC[C@H]2C3)CC1 [Compound 183]	< 25	+ (activity was measured to be greater than 5.0 μM)	< 25	+ (activity was measured to be greater than 5.0 μM)	25 to 100	+ (activity was measured to be greater than 5.0 μM)	25 to 100	+++ (activity was measured to be less than 1.0 μM)
COc1ccc(-c2ccc(C(=O)NCCCO)cc2)cc1C1CCN(C2CCOCC2)CC1 [Compound 184]	< 25	+ (activity was measured to be greater than 5.0 μM)	< 25	+ (activity was measured to be greater than 5.0 μM)	< 25	+ (activity was measured to be greater than 5.0 μM)	< 25	+ (activity was measured to be greater than 5.0 μM)
COc1ccc(C)cc1C1CCN([C@H]2CC[C@H]3CC[C@H]2C3)CC1 [Compound 185]	< 25	+ (activity was measured to be greater than 5.0 μM)	25 to 100	+ (activity was measured to be greater than 5.0 μM)	25 to 100	++ (activity was measured to be from 1.0 μM to 5.0 μM)	25 to 100	+++ (activity was measured to be less than 1.0 μM)
COc1ccc(Br)cc1C1CCN([C@@H]2C[C@@H]3CC[C@H]2C3)CC1 [Compound 187, 1-((1S,2R,4R)-bicyclo[2.2.1]heptan-2-yl)-4-(5-bromo-2-methoxyphenyl)piperidine]	< 25	+ (activity was measured to be greater than 5.0 μM)	25 to 100	++ (activity was measured to be from 1.0 μM to 5.0 μM)	25 to 100	+++ (activity was measured to be less than 1.0 μM)	25 to 100	+++ (activity was measured to be less than 1.0 μM)
Cc1ccc(C(=O)COc2ccccc2C2CCN([C@H]3C[C@H]4CC[C@H]3C4)CC2)cc1 [Compound 188]	< 25	+ (activity was measured to be greater than 5.0 μM)	25 to 100	+ (activity was measured to be greater than 5.0 μM)	25 to 100	+ (activity was measured to be greater than 5.0 μM)	25 to 100	++ (activity was measured to be from 1.0 μM to 5.0 μM)
CCOC(=O)N1CCC(CN2CCC(O)(c3cc(F)ccc3OC)CC2)CC1 [Compound 189]	< 25	+ (activity was measured to be greater than 5.0 μM)	< 25	+ (activity was measured to be greater than 5.0 μM)	25 to 100	+++ (activity was measured to be less than 1.0 μM)	25 to 100	+++ (activity was measured to be less than 1.0 μM)
COc1ccc(-c2ccc(CC#N)cc2)cc1C1CCN(C2C[C@H]3CC[C@H]2C3)CC1 (stereo partly drawn) [Compound 190]	< 25	+ (activity was measured to be greater than 5.0 μM)	< 25	+ (activity was measured to be greater than 5.0 μM)	< 25	+ (activity was measured to be greater than 5.0 μM)	25 to 100	+ (activity was measured to be greater than 5.0 μM)
COc1ccc(-c2ccc(C(C)(C)C#N)cc2)cc1C1CCN(C2CCOCC2)CC1 [Compound 192]	< 25	+ (activity was measured to be greater than 5.0 μM)	< 25	+ (activity was measured to be greater than 5.0 μM)	25 to 100	+ (activity was measured to be greater than 5.0 μM)	25 to 100	+ (activity was measured to be greater than 5.0 μM)
COc1ccc(F)cc1C1CCN(C2CCOCC2)CC1 [Compound 193]	< 25	+ (activity was measured to be greater than 5.0 μM)	25 to 100	+ (activity was measured to be greater than 5.0 μM)	25 to 100	++ (activity was measured to be from 1.0 μM to 5.0 μM)	25 to 100	+++ (activity was measured to be less than 1.0 μM)
c1ccc(C2CCN([C@H]3C[C@H]4CC[C@H]3C4)CC2)c(-c2ccc3c(c2)OCO3)c1 [Compound 195]	< 25	+ (activity was measured to be greater than 5.0 μM)	< 25	+ (activity was measured to be greater than 5.0 μM)	25 to 100	+ (activity was measured to be greater than 5.0 μM)	25 to 100	+++ (activity was measured to be less than 1.0 μM)
CNC(=O)c1ccc(-c2ccc(OC)c(C3CCN(C4CC5CCC(C5)C4)CC3)c2)cc1 (stereo not drawn) [Compound 196]	< 25	+ (activity was measured to be greater than 5.0 μM)	< 25	+ (activity was measured to be greater than 5.0 μM)	< 25	+ (activity was measured to be greater than 5.0 μM)	25 to 100	+++ (activity was measured to be less than 1.0 μM)

Reference: patent publication US7880007B2, “Bicyclic substituted phenyl piperidine modulators of muscarinic receptors” (Vertex Pharmaceuticals Incorporated, priority 2004, dated 2011)
